Literature values as cited in US20030109512A1, “Use of 4-androstenediol and 4-androstenediol in a transdermal formulation to increase testosterone levels in humans” (priority 2001, published 2003).

System: estrogen levels
Details: some studies indicate

Structure (SMILES): C[C@]12CCC(=O)C=C1CC[C@@H]1[C@@H]2CC[C@]2(C)C(=O)CC[C@@H]12 [androstenedione]
- effect on estrogen levels: causes elevation of estrogen levels
